Laboratory results reported in article PMC9138505, “Small Molecule 20S Proteasome Enhancer Regulates MYC Protein Stability and Exhibits Antitumor Activity in Multiple Myeloma” (Biomedicines, 2022).
Several values for one entry are separate records, joined by “and”; a condition that tells them apart may be missing. Identical values can stand only once.

Test system: RPMI-8226 cells
Assay: Gene expression profiling, NanoString nCounter PanCancer Pathways Panel, ROSALIND analysis
Format: cell-based, human
Details: RPMI-8226, TCH-165 samples 1-3
Experimental: RPMI-8226 cells were treated with vehicle or TCH-165 (10 μM) for 4 h. Total RNA was obtained using the mirVana miRNA Isolation Kit, with phenol (Thermofisher Scientific; AM1560; Waltham, MA, USA). Total RNA was quantified by Qubit (Thermofisher Scientific; Q32855; Waltham, MA, USA). and gene expression was evaluated against the nCounter® PanCancer Pathways Panel^TM according to the standard NanoString protocol.
Data were analyzed by ROSALIND® [36] with a hyperscale architecture developed by ROSALIND, Inc. (San Diego, CA, USA). Normalization, fold changes and p-values were calculated using criteria provided by NanoString. ROSALIND follows the nCounter® Advanced Analysis protocol of dividing counts within a lane by the geometric mean of the normalizer probes from the same lane. Housekeeping probes to be used for normalization are selected based on the geNorm algorithm, as implemented in the NormqPCR R library. Fold changes and p-values are calculated using the fast method as described in the nCounter Advanced Analysis 2.0 User Manual. The p-value adjustment is performed using the Benjamini–Hochberg method of estimating false discovery rates (FDR). Clustering of genes for the final heatmap of differentially expressed genes was done using the PAM (Partitioning Around Medoids) method using the fpc R library. Hypergeometric distribution was used to analyze the enrichment of pathways, gene ontology, domain structure and other ontologies. The topGO R library was used to determine local similarities and dependencies between GO terms in order to perform Elim pruning correction. Several database sources were referenced for enrichment analysis, including Interpro [40], NCBI [41], MSigDB [42, 43], REACTOME [44], WikiPathways. Enrichment was calculated relative to a set of background genes relevant to the experiment.

## CCOC(=O)[C@]1(c2ccccc2)N=C(c2ccc(OC)cc2)N(Cc2ccccc2)[C@@H]1c1ccc(NCc2ccccc2)cc1 [TCH-165]
  CDKN2A normalized gene expression: 7.059 and 6.817 and 7.045
  CDKN2B normalized gene expression: 5.827 and 5.402 and 5.787
  CDKN2C normalized gene expression: 2.401 and 2.3768 and 2.653
  CDKN2D normalized gene expression: 6.667 and 6.808 and 7.091
  CEBPA normalized gene expression: 4.308 and 4.029 and 4.291
  CEBPE normalized gene expression: 3.723 and 3.739 and 3.291
  CHAD normalized gene expression: 4.986 and 5.093 and 4.805
  CHEK1 normalized gene expression: 9.816 and 9.813 (2×)
  CHEK2 normalized gene expression: 8.6438 and 8.491 and 8.618
  CHUK normalized gene expression: 8.745 and 8.67 and 8.685
  CIC normalized gene expression: 6.793 and 6.427 and 6.731
  CLCF1 normalized gene expression: 3.723 and 4.2133 and 3.184
  CNTFR normalized gene expression: 4.723 and 5.093 and 4.653
  COL1A1 normalized gene expression: 4.649 and 4.524 and 3.943
  COL1A2 normalized gene expression: 3.401 and 3.154 and 4.0068
  COL2A1 normalized gene expression: 6.015 and 6.817 and 6.494
  COL3A1 normalized gene expression: 4.86 and 4.093 and 4.731
  COL4A3 normalized gene expression: 6.182 and 5.798 and 6.156
  COL4A4 normalized gene expression: 3.208 and 3.739 and 4.613
  COL4A5 normalized gene expression: 4.571 and 3.962 and 3.876
  COL4A6 normalized gene expression: 3.208 and 3.476 and 3.0682
  COL5A1 normalized gene expression: 6.156 and 5.3768 and 5.823
  COL5A2 normalized gene expression: 4.649 and 4.524 and 4.184
  COL11A1 normalized gene expression: 4.793 and 4.029 and 4.184
  COL11A2 normalized gene expression: 3.571 and 3.029 and 2.483
  COMP normalized gene expression: 3.571 and 4.093 and 4.0682
  CREB5 normalized gene expression: 6.467 and 6.324 and 6.437
  CREBBP normalized gene expression: 5.488 and 4.855 and 5.156
  CSF1R normalized gene expression: 3.401 and 3.739 and 3.653
  CSF2 normalized gene expression: 3.86 and 4.029 and 3.291
  CSF3R normalized gene expression: 4.571 and 3.962 and 4.39
  CSF3 normalized gene expression: 4.208 and 3.739 and 3.805
  CTNNB1 normalized gene expression: 11.1942 and 11.0314 and 10.9756
  CUL1 normalized gene expression: 11.4237 and 11.3932 and 11.3628
  CXCL8 normalized gene expression: 7.908 and 8.053 and 8.0531
  CYLD normalized gene expression: 9.829 and 9.692 and 9.711
  DAXX normalized gene expression: 9.74 and 9.747 and 9.706
  DDB2 normalized gene expression: 8.97 and 9.039 and 9.005
  DDIT3 normalized gene expression: 11.9124 and 11.8557 and 11.855
  DDIT4 normalized gene expression: 9.959 and 9.961 and 9.982
  DKK1 normalized gene expression: 5.259 and 4.699 and 4.769
  DKK2 normalized gene expression: 5.488 and 4.657 and 4.805
  DKK4 normalized gene expression: 4.986 and 4.855 and 4.975
  DLL1 normalized gene expression: 4.308 and 4.029 and 3.5707
  DLL3 normalized gene expression: 5.101 and 4.427 and 4.5707
  DLL4 normalized gene expression: 5.401 and 4.817 and 5.211
  DNMT1 normalized gene expression: 10.7929 and 10.7224 and 10.7359
  DNMT3A normalized gene expression: 7.355 and 7.311 and 7.414
  DTX1 normalized gene expression: 5.156 and 5.402 and 5.592
  DTX4 normalized gene expression: 5.793 and 5.996 and 5.9095
  DUSP2 normalized gene expression: 6.378 and 6.364 and 6.623
  DUSP4 normalized gene expression: 7.667 and 7.581 and 7.494
  DUSP5 normalized gene expression: 10.8611 and 10.8321 and 10.8236
  DUSP6 normalized gene expression: 8.008 and 8.128 and 8.003
  DUSP8 normalized gene expression: 6.876 and 6.44 and 6.56
  DUSP10 normalized gene expression: 7.221 and 7.177 and 7.1906
  E2F1 normalized gene expression: 9.135 and 9.126 and 9.063
  E2F5 normalized gene expression: 9.349 and 9.291 and 9.221
  EFNA1 normalized gene expression: 6.283 and 5.2133 and 5.39
  EFNA2 normalized gene expression: 4.924 and 5.2133 and 5.0068
  EFNA3 normalized gene expression: 8.052 and 8.008 and 8.0531
  EFNA5 normalized gene expression: 5.649 and 4.739 and 4.943
  EGF normalized gene expression: 4.86 and 4.569 and 5.0682
  EGFR normalized gene expression: 5.892 and 5.524 and 5.461
  EIF4EBP1 normalized gene expression: 10.6929 and 10.6602 and 10.7353
  ENDOG normalized gene expression: 9.908 and 9.9873 and 9.891
  EP300 normalized gene expression: 9.491 and 9.463 and 9.424
  EPHA2 normalized gene expression: 3.208 and 2.891 and 1.805
  EPO normalized gene expression: 5.101 and 4.324 and 4.483
  EPOR normalized gene expression: 7.259 and 7.147 and 7.1271
  ERBB2 normalized gene expression: 6.044 and 5.427 and 5.291
  ERCC2 normalized gene expression: 6.924 and 6.657 and 6.5707
  ERCC6 normalized gene expression: 6.509 and 6.581 and 6.5707
  ETS2 normalized gene expression: 9.802 and 9.726 and 9.794
  ETV1 normalized gene expression: 9.48 and 9.485 and 9.458
  ETV4 normalized gene expression: 7.978 and 7.949 and 7.741
  ETV7 normalized gene expression: 4.723 and 4.962 and 4.528
  EYA1 normalized gene expression: 7.74 and 7.85 and 7.863
  EZH2 normalized gene expression: 10.3563 and 10.2507 and 10.2954
  FANCA normalized gene expression: 7.073 and 6.808 and 7.015
  FANCB normalized gene expression: 7.62 and 7.291 and 7.576
  FANCC normalized gene expression: 7.86 and 7.614 and 7.764
  FANCE normalized gene expression: 7.61 and 7.608 and 7.587
  FANCF normalized gene expression: 8.337 and 8.334 and 8.268
  FANCG normalized gene expression: 7.571 and 7.364 and 7.478
  FANCL normalized gene expression: 8.9359 and 8.968 and 8.918
  FAS normalized gene expression: 6.723 and 6.719 and 6.613
  FASLG normalized gene expression: 5.044 and 4.614 and 4.769
  FEN1 normalized gene expression: 11.0932 and 10.9634 and 10.9666
  FGF1 normalized gene expression: 4.723 and 4.524 and 5.098
